{"source": "patent US8729095B2", "about": "“3-(biaryloxy)propionic acid derivatives for prevention and/or treatment of thromboembolic diseases” (Daiichi Sankyo Company, Limited, priority 2009, dated 2014)"}
{"tested_on": "platelet aggregation induced by ADP in human platelet-rich plasma (PRP)", "assay": "Human platelet aggregation inhibitory activity (ADP-induced, platelet-rich plasma)", "assay_type": "cell-based", "conditions": "8 min, ADP final concentration 20 μM, maximum aggregation rate, measured for 8 minutes", "method": "A blood collecting syringe containing 1/10 volume of a 3.8% sodium citrate solution was used to collect blood from radial vein of a healthy person. The collected blood was centrifuged at 180×g at room temperature for 10 minutes to separate the supernatant (platelet-rich plasma; PRP). After PRP was separately collected, the remaining blood was centrifuged at 1,600×g for 10 minutes to separately collect platelet-poor plasma (PPP) of the upper layer. PRP was left at rest at 16° C. for 30 minutes, and subsequently used for measurement.\n200 μL of the separately collected PRP was dispensed into a cuvette for the aggregation test, and 1 μL of dimethylsulfoxide (control) or a test compound solution diluted with dimethylsulfoxide was added, followed by incubation at 37° C. for 2 minutes. Subsequently, 2 μL of 2 mM ADP was added (final concentration 20 μM) to induce platelet aggregation.\nPlatelet aggregation was measured for 8 minutes using an aggregometer (MCM HEMA TRACER 313M; MC MEDICAL, INC.). With the light transmittance rate of PPP being set as an aggregation value of 100%, the maximum aggregation rate was determined for each concentration of the test compounds to calculate IC50 values.", "units": {"IC50": "µM"}}
{"smiles": "C[C@@H]1Oc2ncc(F)cc2N(C2CCN(C(=O)c3ccc(-c4ccccc4OCC(C)(C)C(=O)O)cc3F)CC2)C1=O", "note": "[Example 1, 3-{[3′-Fluoro-4′-({4-[(3S)-7-fluoro-3-methyl-2-oxo-2,3-dihydro-1H-pyrido[2,3-b][1,4]oxazin-1-yl]piperidin-1-yl}carbonyl)biphenyl-2-yl]oxy}-2,2-dimethylpropanoic acid]", "IC50": 15}
{"smiles": "CC(C)(COc1ccccc1-c1ccc(C(=O)N2CCC(N3C(=O)C(C)(C)Oc4ncc(C(F)(F)F)cc43)CC2)c(F)c1)C(=O)O", "note": "[Example 3, 3-{[4′-({4-[3,3-Dimethyl-2-oxo-7-(trifluoromethyl)-2,3-dihydro-1H-pyrido[2,3-b][1,4]oxazin-1-yl]piperidin-1-yl}carbonyl)-3′-fluorobiphenyl-2-yl]oxy}-2,2-dimethylpropanoic acid]", "IC50": 3.8}
{"smiles": "Cc1cnc2c(c1)N(C1CCN(C(=O)c3ccc(-c4ccccc4OCC(C)(C)C(=O)O)cc3F)CC1)C(=O)C(C)O2", "note": "(centres unmarked) [Example 4, 3-[(4′-{[4-(3,7-Dimethyl-2-oxo-2,3-dihydro-1H-pyrido[2,3-b][1,4]oxazin-1-yl)piperidin-1-yl]carbonyl}-3′-fluorobiphenyl-2-yl)oxy]-2,2-dimethylpropanoic acid]", "IC50": 4}
{"smiles": "C[C@H](CC(=O)O)Oc1ccccc1-c1ccc(C(=O)N2CCC(N3C(=O)COc4ncc(Cl)cc43)CC2)c(F)c1", "note": "[Example 7, (3R)-3-[(4′-{[4-(7-Chloro-2-oxo-2,3-dihydro-1H-pyrido[2,3-b][1,4]oxazin-1-yl)piperidin-1-yl]carbonyl}-3′-fluorobiphenyl-2-yl)oxy]butanoic acid]", "IC50": 7.9}
{"smiles": "C[C@H](CC(=O)O)Oc1ccccc1-c1ccc(C(=O)N2CCC(N3C(=O)CCc4ncc(Cl)cc43)CC2)c(F)c1", "note": "[Example 8, (3R)-3-[(4′-{[4-(7-Chloro-2-oxo-3,4-dihydro-1,5-naphthyridin-1(2H)-yl)piperidin-1-yl]carbonyl}-3′-fluorobiphenyl-2-yl)oxy]butanoic acid]", "IC50": 14}
{"smiles": "C[C@@H](COc1ccccc1-c1ccc(C(=O)N2CCC(N3C(=O)CCc4ncc(Cl)cc43)CC2)c(F)c1)C(=O)O", "note": "[Example 12, (2S)-3-[(4′-{[4-(7-Chloro-2-oxo-3,4-dihydro-1,5-naphthyridin-1(2H)-yl)piperidin-1-yl]carbonyl}-3′-fluorobiphenyl-2-yl)oxy]-2-methylpropanoic acid]", "IC50": 16}
{"smiles": "Cc1cc(-c2ccccc2OCC(C)(C)C(=O)O)ccc1C(=O)N1CCC(N2C(=O)C3(CC3)Oc3ncc(Cl)cc32)CC1", "note": "[Example 15, 3-[(4′-{[4-(7′-Chloro-2′-oxospiro[cyclopropane-1,3′-pyrido[2,3-b][1,4]oxazin]-1′(2′H)-yl)piperidin-1-yl]carbonyl}-3′-methylbiphenyl-2-yl)oxy]-2,2-dimethylpropanoic acid]", "IC50": 5.8}
{"smiles": "CC(C)(COc1ccccc1-c1ccc(C(=O)N2CCC(N3C(=O)C4(CC4)Oc4ncc(Cl)cc43)CC2)c(Cl)c1)C(=O)O", "note": "[Example 18, 3-[(3′-Chloro-4′-{[4-(7′-chloro-2′-oxospiro[cyclopropane-1,3′-pyrido[2,3-b][1,4]oxazin]-1′(2′H)-yl)piperidin-1-yl]carbonyl}biphenyl-2-yl)oxy]-2,2-dimethylpropanoic acid]", "IC50": 10}
{"smiles": "C[C@@H]1Oc2ncc(Cl)cc2N(C2CCN(C(=O)c3ccc(-c4ccccc4OCC(C)(C)C(=O)O)cc3)CC2)C1=O", "note": "[Example 20, 3-{[4′-({4-[(3S)-7-Chloro-3-methyl-2-oxo-2,3-dihydro-1H-pyrido[2,3-b][1,4]oxazin-1-yl]piperidin-1-yl}carbonyl)biphenyl-2-yl]oxy}-2,2-dimethylpropanoic acid]", "IC50": 2.8}
{"smiles": "CC(C)(COc1ccccc1-c1ccc(C(=O)N2CCC(N3C(=O)C(C)(C)Oc4ncc(Cl)cc43)CC2)c(O)c1)C(=O)O", "note": "[Example 21, 3-[(4′-{[4-(7-Chloro-3,3-dimethyl-2-oxo-2,3-dihydro-1H-pyrido[2,3-b][1,4]oxazin-1-yl)piperidin-1-yl]carbonyl}-3′-hydroxybiphenyl-2-yl)oxy]-2,2-dimethylpropanoic acid]", "IC50": 8.7}
{"smiles": "CC(C)(COc1ccccc1-c1ccc(C(=O)N2CCC(N3C(=O)C(C)(C)Oc4ncc(Cl)cc43)CC2)c([N+](=O)[O-])c1)C(=O)O", "note": "[Example 22, 3-[(4′-{[4-(7-Chloro-3,3-dimethyl-2-oxo-2,3-dihydro-1H-pyrido[2,3-b][1,4]oxazin-1-yl)piperidin-1-yl]carbonyl}-3′-nitrobiphenyl-2-yl)oxy]-2,2-dimethylpropanoic acid]", "IC50": 5.7}
{"smiles": "CC1(C)Oc2ncc(Cl)cc2N(C2CCN(C(=O)c3ccc(-c4ccccc4OCC4(C(=O)O)CC4)cc3F)CC2)C1=O", "note": "[Example 23, 1-{[(4′-{[4-(7-Chloro-3,3-dimethyl-2-oxo-2,3-dihydro-1H-pyrido[2,3-b][1,4]oxazin-1-yl)piperidin-1-yl]carbonyl}-3′-fluorobiphenyl-2-yl)oxy]methyl}cyclopropanecarboxylic acid]", "IC50": 5.2}
{"smiles": "Cc1cnc2c(c1)N(C1CCN(C(=O)c3ccc(-c4ccccc4O[C@H](C)CC(=O)O)cc3F)CC1)C(=O)C(C)(C)O2", "note": "[Example 30, (3R)-3-[(4′-{[4-(3,3,7-Trimethyl-2-oxo-2,3-dihydro-1H-pyrido[2,3-b][1,4]oxazin-1-yl)piperidin-1-yl]carbonyl}-3′-fluorobiphenyl-2-yl)oxy]butanoic acid]", "IC50": 2}
{"smiles": "C[C@H](CC(=O)O)Oc1ccc(F)cc1-c1ccc(C(=O)N2CCC(N3C(=O)COc4ncc(Cl)cc43)CC2)c(F)c1", "note": "[Example 31, (3R)-3-[(4′-{[4-(7-Chloro-2-oxo-2,3-dihydro-1H-pyrido[2,3-b][1,4]oxazin-1-yl)piperidin-1-yl]carbonyl}-3′,5-difluorobiphenyl-2-yl)oxy]butanoic acid]", "IC50": 18}
{"smiles": "C[C@H](CC(=O)O)Oc1ccc(F)cc1-c1ccc(C(=O)N2CCC(N3C(=O)CCc4ncc(Cl)cc43)CC2)c(F)c1", "note": "[Example 32, (3R)-3-[(4′-{[4-(7-Chloro-2-oxo-3,4-dihydro-1,5-naphthyridin-1(2H)-yl)piperidin-1-yl]carbonyl}-3′,5-difluorobiphenyl-2-yl)oxy]butanoic acid]", "IC50": 17}
{"smiles": "C[C@H](C(=O)O)[C@@H](C)Oc1ccccc1-c1ccc(C(=O)N2CCC(N3C(=O)C(C)(C)Oc4ncc(Cl)cc43)CC2)c(F)c1", "note": "[Example 33, (2S,3R)-3-[(4′-{[4-(7-Chloro-3,3-dimethyl-2-oxo-2,3-dihydro-1H-pyrido[2,3-b][1,4]oxazin-1-yl)piperidin-1-yl]carbonyl}-3′-fluorobiphenyl-2-yl)oxy]-2-methylbutanoic acid]", "IC50": 16}
{"smiles": "CC1(C)Cc2ncc(Cl)cc2N(C2CCN(C(=O)c3ccc(-c4cc(F)ccc4OCCC(=O)O)cc3F)CC2)C1=O", "note": "[Example 37, 3-[(4′-{[4-(7-Chloro-3,3-dimethyl-2-oxo-3,4-dihydro-1,5-naphthyridin-1(2H)-yl)piperidin-1-yl]carbonyl}-3′,5-difluorobiphenyl-2-yl)oxy]propanoic acid]", "IC50": 6.6}
{"smiles": "C[C@H](CC(=O)O)Oc1ccccc1-c1cnc(C(=O)N2CCC(N3C(=O)C(C)(C)Oc4ncc(Cl)cc43)CC2)c(F)c1", "note": "[Example 39, (3R)-3-[2-(6-{[4-(7-Chloro-3,3-dimethyl-2-oxo-2,3-dihydro-1H-pyrido[2,3-b][1,4]oxazin-1-yl)piperidin-1-yl]carbonyl}-5-fluoropyridin-3-yl)phenoxy]butanoic acid]", "IC50": 1}
{"smiles": "C[C@H](CC(=O)O)Oc1ccccc1-c1cnc(C(=O)N2CCC(N3C(=O)[C@H](C)Oc4ncc(Cl)cc43)CC2)c(F)c1", "note": "[Example 40, (3R)-3-{2-[6-({4-[(3S)-7-Chloro-3-methyl-2-oxo-2,3-dihydro-1H-pyrido[2,3-b][1,4]oxazin-1-yl]piperidin-1-yl}carbonyl)-5-fluoropyridin-3-yl]phenoxy}butanoic acid]", "IC50": 1.1}
{"smiles": "C[C@H](CC(=O)O)Oc1ccc(F)cc1-c1cnc(C(=O)N2CCC(N3C(=O)[C@H](C)Oc4ncc(Cl)cc43)CC2)c(F)c1", "note": "[Example 43, (3R)-3-{2-[6-({4-[(3S)-7-Chloro-3-methyl-2-oxo-2,3-dihydro-1H-pyrido[2,3-b][1,4]oxazin-1-yl]piperidin-1-yl}carbonyl)-5-fluoropyridin-3-yl]-4-fluorophenoxy}butanoic acid]", "IC50": 2.6}
{"smiles": "C[C@@H](COc1ccccc1-c1cnc(C(=O)N2CCC(N3C(=O)C(C)(C)Oc4ncc(Cl)cc43)CC2)c(F)c1)C(=O)O", "note": "[Example 47, (2S)-3-[2-(6-{[4-(7-Chloro-3,3-dimethyl-2-oxo-2,3-dihydro-1H-pyrido[2,3-b][1,4]oxazin-1-yl)piperidin-1-yl]carbonyl}-5-fluoropyridin-3-yl)phenoxy]-2-methylpropanoic acid]", "IC50": 2}
{"smiles": "C[C@@H](COc1ccc(F)cc1-c1cnc(C(=O)N2CCC(N3C(=O)C(C)(C)Cc4ncc(Cl)cc43)CC2)c(F)c1)C(=O)O", "note": "[Example 48, (2S)-3-[2-(6-{[4-(7-Chloro-3,3-dimethyl-2-oxo-3,4-dihydro-1,5-naphthyridin-1(2H)-yl)piperidin-1-yl]carbonyl}-5-fluoropyridin-3-yl)-4-fluorophenoxy]-2-methylpropanoic acid]", "IC50": 3.7}
{"smiles": "C[C@@H](COc1ccc(F)cc1-c1cnc(C(=O)N2CCC(N3C(=O)C(C)(C)Oc4ncc(Cl)cc43)CC2)c(F)c1)C(=O)O", "note": "[Example 49, (2S)-3-[2-(6-{[4-(7-Chloro-3,3-dimethyl-2-oxo-2,3-dihydro-1H-pyrido[2,3-b][1,4]oxazin-1-yl)piperidin-1-yl]carbonyl}-5-fluoropyridin-3-yl)-4-fluorophenoxy]-2-methylpropanoic acid]", "IC50": 1.7}
